Experimental data taken from ChEMBL document CHEMBL5331097, “Synthesis and evaluation of a new class of MIF-inhibitors in activated macrophage cells and in experimental septic shock in mice” (Eur J Med Chem, 2023).
Activity calls are given as the source filed them. No cut-off for these calls is given here.

Tests used:
[1] = molecular target: T1, Macrophage migration inhibitory factor (Homo sapiens, UniProt P14174); experiment: Inhibition of human recombinant MIF ketonase activity using phenylpyruvate as substrate
T1 sequence (P14174 whole entry): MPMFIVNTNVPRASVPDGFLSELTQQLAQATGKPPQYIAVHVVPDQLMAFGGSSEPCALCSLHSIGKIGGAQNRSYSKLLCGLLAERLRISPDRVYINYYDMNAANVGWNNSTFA

[2] = molecular target: T1, Macrophage migration inhibitory factor; experiment: Inhibition of human recombinant MIF enolase activity using phenylpyruvate as substrate
[3] = test system: RAW264.7; experiment: Antiproliferative activity against LPS induced mouse RAW264.7 cells assessed as decrease in number of living cells at 50 uM pretreated for 30 mins followed by LPS addition measured after 24 hrs relative to control; type: functional; design: scale not given: the % may be the effect or the level left; conditions: time 24.5 hrs
[4] = test system: RAW264.7; experiment: Reduction of macrophage activation in LPS induced mouse RAW264.7 cells assessed as NF-kappaB activation at 50 uM pretreated for 30 mins followed by LPS addition measured after 24 hrs; type: functional, cell-based; conditions: time 24.5 hrs
[5] = test system: RAW264.7; experiment: Reduction of macrophage activation in LPS induced mouse RAW264.7 cells assessed as reduction in TNF-alpha production at 50 uM pretreated for 30 mins followed by LPS addition after 24 hrs by ELISA method; type: functional, cell-based; conditions: time 24.5 hrs
[6] = test system: RAW264.7; experiment: Reduction of macrophage activation in LPS induced mouse RAW264.7 cells assessed as reduction in IL-6 production at 50 uM pretreated for 30 mins followed by LPS addition after 24 hrs by ELISA method; type: functional, cell-based; conditions: time 24.5 hrs
[7] = test system: RAW264.7; experiment: Antiproliferative activity against LPS induced mouse RAW264.7 cells at 50 uM measured after 24 hrs; type: functional, cell-based
[8] = test system: RAW264.7; experiment: Antiinflammatory activity in LPS induced mouse RAW264.7 cells assessed as reduction of ROS production at 50 uM pretreated for 30 mins followed by LPS addition measured after 24 hrs measured by fluorescence based assay; type: functional, cell-based; conditions: time 24.5 hrs
[9] = test system: RAW264.7; experiment: Antiinflammatory activity in LPS induced mouse RAW264.7 cells assessed as reduction of nitrite production at 50 uM pretreated for 30 mins followed by LPS addition measured after 24 hrs measured by Griess reagent method; type: functional, cell-based; conditions: time 24.5 hrs
[10] = test system: RAW264.7; experiment: Reduction of macrophage activation in LPS induced mouse RAW264.7 cells assessed as NF-kappaB activation at 50 uM pretreated for 30 mins followed by LPS addition measured after 24 hrs relative to control; type: functional; design: scale not given: the % may be the effect or the level left; conditions: time 24.5 hrs
[11] = test system: Mus musculus; experiment: Protection against C57BL/6 mouse assessed as increase in LPS-induced colonic temperature at 1.8 mg/kg, ip for 30 mins followed by LPS addition measured from 130 to 360 mins; type: functional, organism-based; conditions: time 160-390 min

| Compound | IC50 ([1]; read-out: IC50) [µM] | IC50 ([2]; read-out: IC50) [µM] | also measured |
| --- | --- | --- | --- |
| COc1ccc2c(c1)CC/C(=C\c1ccccc1)C2=O | 48.9 | 126 |  |
| COc1ccc2c(c1)CC/C(=C\c1ccc(O)c(OC)c1)C2=O | 49.2 | 53 |  |
| COc1ccc2c(c1)C(=O)/C(=C/c1cccc(O)c1O)C2 | 9.88 | 17 |  |
| Cc1ccc(/C=C2\CCc3cc(O)ccc3C2=O)cc1 | 51.5 | 71.4 |  |
| COc1ccc2c(c1)C(=O)/C(=C/c1ccc(O)c(OC)c1)C2 | 19.8 | 38.3 |  |
| O=C1/C(=C/c2ccccn2)CCc2cc(O)ccc21 | 32.1 | 65.9 |  |
| O=C1/C(=C/c2cccc(O)c2)CCc2ccccc21 | 25.4 | 35.9 |  |
| O=C1/C(=C/c2cccc(O)c2O)Cc2ccccc21 | 2.05 | 39.3 |  |
| COc1cc(/C=C2\CCc3cc(OC)c(OC)cc3C2=O)ccc1O |  | 104 | IC50 [1]: Not Active |
| COc1ccc(/C=C2\Cc3ccccc3C2=O)cc1O | 4.95 | 1.32 | Activity [3]: 80.46%; Activity [4]: inactive; Activity [5]: Active; Activity [6]: Active |
| COc1cc(/C=C2\CCc3cc(O)ccc3C2=O)cc(OC)c1OC | 64.7 | 484 |  |
| O=C1/C(=C/c2ccc(O)cc2)CSc2ccccc21 | 99.3 | 827 |  |
| COc1cc(/C=C2\Cc3ccccc3C2=O)ccc1O | 96.5 | 14.5 |  |
| COc1ccc2c(c1)C/C(=C\c1cccc(O)c1O)C2=O | 67.3 | 28.9 |  |
| COc1ccc2c(c1)CC/C(=C\c1ccc(C)cc1)C2=O |  | 2620 | IC50 [1]: Not Active |
| COc1ccc2c(c1)CC/C(=C\c1ccc(O)c(O)c1)C2=O | 78 | 132 |  |
| O=C1/C(=C/c2cccs2)CCc2cc(O)ccc21 | 51 | 6.46 |  |
| COc1cc(/C=C2\CCc3cc(O)ccc3C2=O)ccc1O | 30.4 | 30.9 |  |
| N#Cc1ccc(/C=C2\CCc3cc(O)ccc3C2=O)cc1 | 68 |  | IC50 [2]: Not Active |
| O=C1/C(=C/c2cc(O)cc(O)c2)CCc2ccccc21 | 65 | 24.9 |  |
| O=C1/C(=C/c2cccc(O)c2)CCc2cc(O)ccc21 | 19.6 | 111 |  |
| O=C1/C(=C/c2ccc3c(c2)OCO3)CCc2cc(O)ccc21 | 22 | 65.8 |  |
| O=C1/C(=C/c2ccccc2O)CCc2cc(O)ccc21 | 39.1 | 50.2 |  |
| CCN(CC)CCOc1ccc(/C=C2\CCc3cc(O)ccc3C2=O)cc1 | 8.75 | 41.3 |  |
| O=C1/C(=C/c2c[nH]c3ccccc23)CCc2cc(O)ccc21 | 60.7 | 210 |  |

| Compound | IC50 ([1]; read-out: IC50) [µM] | IC50 ([2]; read-out: IC50) [µM] | also measured |
| --- | --- | --- | --- |
| O=C1/C(=C/c2ccccc2)CCc2cc(O)ccc21 | 2.04 | 1.99 | Activity [7]: inactive; Activity [8]: inactive; Activity [9]: Active; Activity [10]: ~35%; Activity [5]: Active; Activity [6]: Active |
| O=C1/C(=C/c2ccc(O)cc2)COc2ccccc21 | 127 | 72.7 |  |
| O=C1/C(=C/c2ccc(O)cc2)CS(=O)(=O)c2ccccc21 | 33.4 | 102 |  |
| CN(C)c1ccc(/C=C2\CCc3cc(O)ccc3C2=O)cc1 | 25.7 | 39.7 |  |
| O=C1/C(=C/c2ccc[nH]2)CCc2cc(O)ccc21 | 162 | 81.3 |  |
| O=C1/C(=C/c2ccc(O)cc2)CCc2cc(O)ccc21 | 23.9 |  | IC50 [2]: Not Active |
| O=C1/C(=C/c2ccccc2O)Cc2ccccc21 | 40.7 | 401 |  |
| O=C1/C(=C/c2ccco2)CCc2cc(O)ccc21 | 31.4 | 38.2 |  |
| O=C1/C(=C/c2ccccc2)COc2cc(O)ccc21 | 42.7 | 23.4 |  |
| CC(C)c1ccc(/C=C2\CCc3cc(O)ccc3C2=O)cc1 | 2.12 | 4.43 |  |
| O=C1/C(=C/c2ccc(O)c(O)c2)Cc2ccccc21 | 12.9 |  | IC50 [2]: Not Active |
| O=C1/C(=C/c2ccccc2O)CCc2ccccc21 | 29.8 | 1160 |  |
| O=C1/C(=C/c2ccc(O)cc2)CCc2ccccc21 | 49.2 | 1.94 | Activity [7]: inactive; Activity [10]: ~35%; Activity [5]: Active; Activity [6]: Active; Activity [11]: Active |
| O=C1/C(=C/c2cccnc2)CCc2cc(O)ccc21 | 72.6 | 33.3 |  |
| O=C1/C(=C/c2ccc(O)cc2)COc2cc(O)ccc21 | 1.54 | 8.72 | Activity [7]: inactive; Activity [9]: Active; Activity [4]: inactive; Activity [5]: Active; Activity [6]: Active |
| COc1ccc2c(c1)CC/C(=C\c1cccnc1)C2=O | 63.4 | 81.4 |  |
| COc1ccc2c(c1)C(=O)/C(=C/c1ccc(OC)c(O)c1)C2 | 204 | 73.8 |  |
| COc1cc(/C=C2\CCc3ccccc3C2=O)ccc1O | 51.1 |  |  |
| COc1ccc2c(c1)CC/C(=C\c1ccncc1)C2=O | 58.8 | 107 |  |
| COc1ccc(/C=C2\CCc3cc(O)ccc3C2=O)cc1 | 67.2 | 44 |  |
| O=C1/C(=C/c2ccc(O)cc2)Cc2ccccc21 | 0.88 | 1.22 | Activity [7]: inactive; Activity [4]: inactive; Activity [5]: Active; Activity [6]: Active |
| O=C1/C(=C/c2ccc(O)cc2)CCCc2ccccc21 | 67.2 | 13.8 |  |
| COc1ccc2c(c1)CC/C(=C\c1ccc(O)cc1)C2=O | 2.99 | 2.98 |  |
| O=C1/C(=C/C=C/c2ccccc2)CCc2cc(O)ccc21 | 35.2 |  | IC50 [2]: Not Active |
